From patent US12029793B2, “pH low insertion peptide targeted delivery of potent cytotoxic compounds” (University of Rhode Island Board of Trustees, priority 2019, dated 2024)
Side chains are listed from the residue outwards. Ends that are not written are not given here. * marks the point of attachment. mertansine = COc1cc2cc(c1Cl)N(C)C(=O)C[C@H](OC(=O)[C@H](C)N(C)C(=O)CCS*)[C@]1(C)O[C@H]1[C@H](C)[C@@H]1C[C@@](O)(NC(=O)O1)[C@H](OC)/C=C/C=C(\C)C2; SPDP = linker on the drug for disulfide conjugation to Cys

What was measured:
[1] = test system: panel of urinary bladder cancer cell lines; test: Cell viability on panel of urinary bladder cancer cell lines (summary statements); assay type: cell-based; conditions: amanitin alone, two hours, concentrations up to 2 μM
Method: The cytotoxic and highly polar agents, like amanitin, may be especially effective in topical applications.
Cancer cells were loaded in the wells of 96-well plates (5,000 cells/well) and incubated overnight. The standard growth medium was replaced with medium without FBS, at pH 6.0 or 7.4, containing increasing amounts of pHLIP-S-S-amanitin (from 0 to 2.0 μM). The pH 6.0 medium was prepared by mixing 13.3 g of dry DMEM in 1 L of deionized water. After two-hour incubation with the pHLIP-S-S-amanitin, the construct was removed and replaced with standard growth medium. […] Cell viability was assessed after 48 hours using the colorimetric CellTiter 96 AQueous One Solution Cell Proliferation Assay by absorption measurement at 490 nm (FIG. 20B presents an example of the data obtained on SCaBER squamous cell carcinoma).
There was no difference in the viability of cells incubated with media, without construct, at pH 7.4 and pH 6.0; therefore, the role of pH was excluded from the consideration. Therapeutic index (TI) was calculated according to the equation: […]
Table 8 below contains EC50 values obtained for the treatment at pH 7.4 and pH 6.0 and calculated therapeutic index, which clearly indicated a pH-dependent cell action of pHLIP-S-S-amanitin. […]

[2] = test system: HeLa human cervical tumors; test: Tumor weight after IP treatment with pHLIP-S-S-calicheamicin; assay type: in vivo, female athymic nude mice; conditions: multiple IP injections once in 3-4 days, total ~1.5 mg/kg, vs non-treated control
Method: FIG. 21C depicts box plot presenting mean (filled squares), median, 25 and 75 percentiles (box) and standard deviation values of tumor weights after IP and IT treatment with pHLIP-S-S-calicheamicin compared to the control (non-treated) group. P-level was calculated using two-tailed test.
Calicheamicin modified with SPDP was synthesized and purified by Cfm, GmbH (FIG. 21A). Calicheamicin-SPDP was used to conjugate with Cys residue of pHLIP® peptide's membrane-inserting end to obtain pHLIP-S-S-calicheamicin. The pHLIP® peptide used in the study: […] (SEQ ID NO: 3) was prepared by solid-phase synthesis. Purification of the pHLIP-S-S-calicheamicin was conducted using RP-HPLC (the gradient: 10 mM TEAA buffer and acetonitrile), followed by lyophilization. The construct purity and identity was established by analytical RP-HPLC and surface-enhanced laser desorption/ionization time of flight (SELDI-TOF) mass spectroscopy, respectively. Construct concentration was calculated by absorbance at 280 nm for pHLIP® peptide with correction on absorbance of calicheamicin. pHLIP-S-S-calicheamicin dissolved in PBS was given as multiple intraperitoneal (IP) or intratumoral (IT) injections (once in 3-4 days) into mice bearing HeLa human cervical tumors in flank of female athymic nude mice.
The total combined dose of the multiple IP injections of pHLIP-S-S-calicheamicin was ˜1.5 mg/kg. […]

[3] = test system: MDA-MB-231 human triple negative breast or HeLa human cervical tumors; test: Tumor weight after IP or IT treatment with pHLIP-S-S-mertansine; assay type: in vivo, female athymic nude mice; conditions: for tumor weight reduction: vs non-treated control
Method: FIG. 19C depicts a box plot presenting mean (filled square), median, 25 and 75 percentiles (box itself) and standard deviation values of the tumor weights collected after IP and IT treatment with pHLIP-S-S-mertansine compared to the control (non-treated) group. P-level was calculated using two-tailed test.
pHLIP-S-S-mertansine dissolved in PBS and was given as multiple intraperitoneal (IP) or intratumoral (IT) injections (once in 3-4 days) into mice bearing MDA-MB-231 human triple negative breast or HeLa human cervical tumors in flanks of female athymic nude mice. The total combined dose of the multiple IP injections of pHLIP-S-S-mertansine was […], and the total combined dose of the multiple IT injections of pHLIP-S-S-mertansine was ˜2.5 mg/kg. When the tumor reached a size of about 1 cm^3 (about 1 g) in the control (non-treated) group, the animals were sacrificed; tumors were collected (FIG. 19B) and weighted (FIG. 19C).
In a separate experiment, IT injections were performed, tumors disappeared and mice were left for several weeks.

[4] = test system: HeLa human cervical tumors; test: Tumor weight after treatment with pHLIP-S-S-exatecan; assay type: in vivo, female athymic nude mice

CC[C@H](C)[C@@H]1NC(=O)CNC(=O)[C@@H]2Cc3c([nH]c4cc(O)ccc34)[S@+]([O-])C[C@H](NC(=O)CNC1=O)C(=O)N[C@@H](CC(N)=O)C(=O)N1C[C@H](O)C[C@H]1C(=O)N[C@@H]([C@@H](C)[C@@H](O)CO)C(=O)N2 [amanitin, alpha-amanitin]
induction of cell death [1]: did not induce cell death

pHLIP-S-S-calicheamicin: Calicheamicin-SPDP conjugated with Cys residue of membrane-inserting end of pHLIP peptide ADDQNPWRAYLDLLFPTDTLLLDLLWCA (SEQ ID NO: 3) (ADDQNPWRAYLDLLFPTDTLLLDLLWC([SPDP-calicheamicin])A)
tumor weight reduction [2]: About 88%

pHLIP-S-S-mertansine: Mertansine (DM1) conjugated to membrane-inserting end of pHLIP peptide ADDQNPWRAYLDLLFPTDTLLLDLLWCA (SEQ ID NO: 3) via cleavable S-S link (ADDQNPWRAYLDLLFPTDTLLLDLLWC(mertansine)A)
tumor disappearance ([3]; after IT administration, in some cases): tumor disappeared | signs of toxicity ([3]; in the course of IP or IT treatment): no signs of toxicity | tumor weight reduction ([3]; multiple IP injections once in 3-4 days, total combined dose −10 mg/kg): About 60% | tumor weight reduction ([3]; multiple IT injections once in 3-4 days, total combined dose ~2.5 mg/kg): more than 90% | cases with no tumor re-growth ([3]; separate experiment, IT injections, tumors disappeared, mice left for several weeks): 60%

pHLIP-S-S-exatecan: Exatecan-SPDP conjugated with single Cys residue of membrane-inserting end of pHLIP peptide ADDQNPWRAYLDLLFPTDTLLLDLLWCA (SEQ ID NO: 3) (ADDQNPWRAYLDLLFPTDTLLLDLLWC([SPDP-exatecan])A)
tumor weight reduction ([4]; IP administration, multiple injections once in 3-4 days, vs non-treated control): 50-60% | tumor weight reduction ([4]; IT administration): more than 70%
